The text below walks through data of PubChem BioAssay AID1963873 (Molecular Pharmacology Branch, DTP, NCI, 2024).

For this experiment, the system named is 276233-004-R-J1-PDC KRAS spheroids with HUVEC/MSC, viability. The experiment can be described thus: Anticancer human tumor 276233-004-R-J1-PDC patient-derived colon adenocarcinoma cell line growth inhibition [KRAS2]. As to conditions: for viability, T/C: stronger effect = lower value. In outline:
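KRAS-mutant tumor cells were grown as spheroids with HUVEC endothelial cells and human MSCs as stroma. Targeted agents were tested alone and with KRAS pathway inhibitors. Doses started at or near clinical Cmax, or 10 microM, descending half-log.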

Where [1] appears, read: curve of first compound, second compound 0.1 µM.
The mark [2] stands for this setting: curve of first compound, second compound 0.316 µM.
Setting [3] is: curve of first compound, second compound 1 µM.
[4] abbreviates: curve of first compound, second compound 3.16 µM.
Where [5] appears, read: curve of first compound, second compound 10 µM.
The mark [6] stands for this setting: second compound 0.1 µM, first compound 0.0316 µM.
The mark [7] stands for this setting: second compound 0.1 µM, first compound 0.1 µM.
Setting [8] is: second compound 0.316 µM, first compound 0.0316 µM.
Where [9] appears, read: second compound 0.316 µM, first compound 0.1 µM.
Setting [10] is: second compound 1 µM, first compound 0.0316 µM.
The mark [11] stands for this setting: second compound 1 µM, first compound 0.1 µM.
Setting [12] is: second compound 3.16 µM, first compound 0.0316 µM.
Setting [13] is: second compound 3.16 µM, first compound 0.1 µM.
The mark [14] stands for this setting: second compound 10 µM, first compound 0.0316 µM.
[15] abbreviates: second compound 10 µM, first compound 0.1 µM.
Where [16] appears, read: second compound 0.1 µM, first compound 0.316 µM.
The mark [17] stands for this setting: second compound 0.1 µM, first compound 1 µM.
[18] abbreviates: second compound 0.1 µM, first compound 3.16 µM.
[19] abbreviates: second compound 0.1 µM, first compound 10 µM.
The mark [20] stands for this setting: second compound 0.316 µM, first compound 0.316 µM.
The mark [21] stands for this setting: second compound 0.316 µM, first compound 1 µM.
The mark [22] stands for this setting: second compound 0.316 µM, first compound 3.16 µM.
Where [23] appears, read: second compound 0.316 µM, first compound 10 µM.
Setting [24] is: second compound 1 µM, first compound 0.316 µM.
[25] abbreviates: second compound 1 µM, first compound 1 µM.
[26] abbreviates: second compound 1 µM, first compound 3.16 µM.
[27] abbreviates: second compound 1 µM, first compound 10 µM.
Where [28] appears, read: second compound 3.16 µM, first compound 0.316 µM.
The mark [29] stands for this setting: second compound 3.16 µM, first compound 1 µM.
Setting [30] is: second compound 3.16 µM, first compound 3.16 µM.
[31] abbreviates: second compound 3.16 µM, first compound 10 µM.

Where only a bound is given, the exact number is not on record here.
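Further: cells exposed to agents for seven days before viability read.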
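Wherever viability, T/C is given: 100% = DMSO vehicle control wells and lower values mean fewer viable cells.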

For the compound `Cn1ncnc1[C@H]1c2n[nH]c(=O)c3cc(F)cc(c23)N[C@@H]1c1ccc(F)cc1` + C=CC(=O)N1CCN(c2nc(=O)n(-c3c(C)ccnc3C(C)C)c3nc(-c4c(O)cccc4F)c(F)cc23)C(C)C1, the IC50 (in general, the point on the concentration scale where inhibition reaches its midpoint) was greater than 0.1 µM under setting [1]; greater than 0.1 µM under setting [2]; greater than 0.1 µM under setting [3]; greater than 0.1 µM under setting [4]; greater than 0.1 µM under setting [5]. For the same compound, the viability, T/C (usually the result in the treated group divided by that in the control group, in per cent) is 89.7% (second compound 0.1 µM, first compound 0.000316 µM); 98% (second compound 0.1 µM, first compound 0.001 µM); 94.8% (second compound 0.1 µM, first compound 0.00316 µM); 99.5% (second compound 0.1 µM, first compound 0.01 µM); 95.1% under setting [6]; 91.7% under setting [7]. Also, the viability, T/C (second compound 0.316 µM, first compound 0.000316 µM) was 99.6%; the viability, T/C (second compound 0.316 µM, first compound 0.001 µM) was 111%; the viability, T/C (second compound 0.316 µM, first compound 0.00316 µM) was 101%; the viability, T/C (second compound 0.316 µM, first compound 0.01 µM) is 100%; the viability, T/C under setting [8] is 94.4%; the viability, T/C under setting [9] is 92%. Also, the viability, T/C (second compound 1 µM, first compound 0.000316 µM) is 98.6%; the viability, T/C (second compound 1 µM, first compound 0.001 µM) was 121%; the viability, T/C (second compound 1 µM, first compound 0.00316 µM) is 138%; the viability, T/C (second compound 1 µM, first compound 0.01 µM) is 93.9%; the viability, T/C under setting [10] is 95.5%; the viability, T/C under setting [11] is 94.9%. The viability, T/C reads like this: (second compound 3.16 µM, first compound 0.000316 µM) 98.4%; (second compound 3.16 µM, first compound 0.001 µM) 116%; (second compound 3.16 µM, first compound 0.00316 µM) 117%; (second compound 3.16 µM, first compound 0.01 µM) 92.5%; under setting [12], 97.8%; under setting [13], 133%. The viability, T/C is 88.2% (second compound 10 µM, first compound 0.000316 µM); 91.3% (second compound 10 µM, first compound 0.001 µM); 114% (second compound 10 µM, first compound 0.00316 µM); 85.7% (second compound 10 µM, first compound 0.01 µM); 83.4% under setting [14]; 88.4% under setting [15].

Turning to `COC(=O)c1ccc2c(C(=Nc3ccc(N(C)C(=O)CN4CCN(C)CC4)cc3)c3ccccc3)c(O)[nH]c2c1` + C=CC(=O)N1CCN(c2nc(=O)n(-c3c(C)ccnc3C(C)C)c3nc(-c4c(O)cccc4F)c(F)cc23)C(C)C1, the IC50 reads like this: under setting [1], greater than 10 µM; under setting [2], greater than 10 µM; under setting [3], greater than 10 µM; under setting [4], greater than 10 µM; under setting [5], 3.36 µM. Also, the viability, T/C by setting is: under setting [6], 104%; under setting [7], 72.4%; under setting [16], 71.5%; under setting [17], 92.8%; under setting [18], 91.8%; under setting [19], 97.2%. In addition, the viability, T/C is, setting by setting: under setting [8], 105%; under setting [9], 80.5%; under setting [20], 90%; under setting [21], 83%; under setting [22], 91.1%; under setting [23], 92.3%. For the same compound, the viability, T/C under setting [10] was 106%; the viability, T/C under setting [11] is 87.5%; the viability, T/C under setting [24] was 64.8%; the viability, T/C under setting [25] was 96.7%; the viability, T/C under setting [26] is 96%; the viability, T/C under setting [27] is 88.3%. Further, the viability, T/C reads like this: under setting [12], 93.9%; under setting [13], 78.1%; under setting [28], 81.1%; under setting [29], 63.3%; under setting [30], 89.5%; under setting [31], 95.5%. In addition, the viability, T/C runs as follows: under setting [14], 78.2%; under setting [15], 73.2%; (second compound 10 µM, first compound 0.316 µM) 61.2%; (second compound 10 µM, first compound 1 µM) 82.2%; (second compound 10 µM, first compound 3.16 µM) 51.8%; (second compound 10 µM, first compound 10 µM) 16.8%.

As for `CC(=O)Nc1cccc(-n2c(=O)n(C3CC3)c(=O)c3c(Nc4ccc(I)cc4F)n(C)c(=O)c(C)c32)c1`, the viability, T/C runs as follows: (compound 0.0001 µM) 95.5% [middle of 5 runs]; (compound 0.000316 µM) 85.5% [middle of 5 runs]; (compound 0.00316 µM) 68.5% [middle of 5 runs]; (compound 0.01 µM) 54.7% [middle of 5 runs]; (compound 0.0316 µM) 21.5% [middle of 5 runs]. The IC50 (curve of compound) is 9.31 nM [middle of 5 runs].

For `COc1cc(Nc2ncc3c(n2)-c2ccc(Cl)cc2C(c2c(F)cccc2OC)=NC3)ccc1C(=O)O`, the viability, T/C (compound 0.1 µM) is 99.8% [middle of 5 runs]; the viability, T/C (compound 0.316 µM) was 93.1% [middle of 5 runs]; the viability, T/C (compound 1 µM) is 87.7% [middle of 5 runs]; the viability, T/C (compound 3.16 µM) was 95.5% [middle of 5 runs]. Where the note is “curve of compound”, the IC50 was greater than 10 µM.

On to `COC(=O)c1ccc2c(C(=Nc3ccc(N(C)C(=O)CN4CCN(C)CC4)cc3)c3ccccc3)c(O)[nH]c2c1` + C=CC(=O)N1CCN(c2nc(OCC3CCCN3C)nc3c2CCN(c2cccc4cccc(C)c24)C3)CC1CC#N, for which the IC50 (curve of first compound, second compound 0.0316 µM) was greater than 10 µM; the IC50 under setting [1] is greater than 10 µM; the IC50 under setting [2] was greater than 10 µM; the IC50 under setting [3] is greater than 10 µM; the IC50 under setting [4] is less than 0.0316 µM. The viability, T/C was 86.4% (second compound 0.0316 µM, first compound 0.0316 µM); 95.1% (second compound 0.0316 µM, first compound 0.1 µM); 77.5% (second compound 0.0316 µM, first compound 0.316 µM); 83.6% (second compound 0.0316 µM, first compound 1 µM); 81.8% (second compound 0.0316 µM, first compound 3.16 µM); 93.2% (second compound 0.0316 µM, first compound 10 µM). The viability, T/C is 77.4% under setting [6]; 65.8% under setting [7]; 59.2% under setting [16]; 71.7% under setting [17]; 89.7% under setting [18]; 64% under setting [19]. Further, the viability, T/C runs as follows: under setting [8], 83.6%; under setting [9], 87.5%; under setting [20], 76.2%; under setting [21], 77.1%; under setting [22], 78.6%; under setting [23], 70%. In addition, the viability, T/C is, setting by setting: under setting [10], 88%; under setting [11], 78.8%; under setting [24], 69.8%; under setting [25], 62.1%; under setting [26], 69.1%; under setting [27], 65.7%. The viability, T/C under setting [12] was 39.6%; the viability, T/C under setting [13] is 46.6%; the viability, T/C under setting [28] was 34.4%; the viability, T/C under setting [29] was 26.9%; the viability, T/C under setting [30] was 18.7%; the viability, T/C under setting [31] is 3.45%.
